Measurements reported in ChEMBL document CHEMBL3045831, “Insight into the structural requirement of aryltriazolinone derivatives as angiotensin II AT1 receptor: 2D and 3D-QSAR k-Nearest Neighbor Molecular Field Analysis approach” (Med Chem Res, 2012).

Molecular target: T1, Type-1 angiotensin II receptor (Oryctolagus cuniculus, UniProt P34976)
T1 sequence (P34976 whole entry): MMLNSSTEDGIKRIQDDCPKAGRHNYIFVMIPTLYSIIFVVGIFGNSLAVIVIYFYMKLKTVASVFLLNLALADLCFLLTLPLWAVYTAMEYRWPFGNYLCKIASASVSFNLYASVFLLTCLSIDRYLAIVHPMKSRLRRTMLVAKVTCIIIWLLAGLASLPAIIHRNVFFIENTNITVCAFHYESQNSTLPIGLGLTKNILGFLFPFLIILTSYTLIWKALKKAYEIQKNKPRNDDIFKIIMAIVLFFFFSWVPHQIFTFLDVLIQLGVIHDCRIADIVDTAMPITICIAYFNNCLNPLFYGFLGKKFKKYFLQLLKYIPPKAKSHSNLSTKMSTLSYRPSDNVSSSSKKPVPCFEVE
Assay: Antagonist activity at Oryctolagus cuniculus (rabbit) aortic AT1 receptor

IC50 (read-out: pIC50 (converted)) [nM] | IC50 (read-out: IC50) [nM] | SMILES
0.178 |  | CCCCNC(=O)c1ccc(Cl)c(-n2nc(CCCC)n(Cc3ccc(-c4ccccc4S(=O)(=O)NC(=O)OC(C)(C)C)cc3F)c2=O)c1
 | 0.19 | CCCCC(=O)Nc1ccc(Cl)c(-n2nc(CCC)n(Cc3ccc(-c4ccccc4S(=O)(=O)NC(=O)c4cc(Cl)ccc4Cl)cc3F)c2=O)c1
